Measurements as given in patent publication US7598341B2, “Molecules that selectively home to vasculature of premalignant or malignant lesions of the pancreas and other organs” (Burnham Institue for Medical Research, priority 2003, dated 2009).

How the values were obtained:
[1] = system: RIP1-Tag2 angiogenic islets and tumors; assay: In vivo homing of phage (pools and individual phage) in RIP1-Tag2 mice; set-up: species or system mouse; settings: phage-displayed peptide, i.v., FIG. 1D, with ex vivo binding patterns
Method: For in vivo selection of phage that home specifically to premalignant lesions and malignant tumors, the ex vivo pre-selected phage pool was injected intravenously into 12 week old RIP1-Tag2 mice through the tail vein, allowed to circulate for 7 minutes and heart-perfused with PBS to remove unbound intravascular phage. As the vasculature is preferentially available for the phage to bind in this selection, there is an enrichment of phage that bind to the endothelium of the target tissue.
The RIP1-Tag2 lesions and control tissues (brain, kidney, spleen, lung, ‘white’ pancreas lacking hemorrhagic lesions and liver were excised to allow for comparison of homing efficiencies. Cell suspensions were prepared by mechanical disruption of the tissues. Tissues were washed to remove unbound phage, and the bound phage rescued and amplified by adding E. coli. The phage pool was re-injected into mice at a similar disease stage, and the cycle repeated. In each experiment, non-recombinant control phage were used as a control for relative selectivity.
Sets of 96 phage clones were randomly collected from each homing phage population that selectively homed to premalignant angiogenic islets or pancreatic tumor cells. Peptide-encoding DNA inserts from collected phage clones were amplified by PCR, and the PCR products sequenced. Phage representing the most frequently appearing peptide motifs were individually tested for their ability to selectively home to the lesions on which they were selected, relative to other stages in the tumorigenesis pathway and to control organs. Six of the phage selected for further analysis were from the tumor screen (referred to as KAA, RGR, RSR, VGVA, VGVG and KAR), and one (EYQ) was picked from the angiogenic screen.

[2] = system: RIP1-Tag2 angiogenic islets and tumors; assay: Localization of fluorescein-conjugated peptides after intravenous injection; type: in vivo, mouse
Method: Fluorescein-conjugated peptides corresponding to phage insert sequences were synthesized using an automated peptide synthesizer with standard solid-phase fluorenylmethoxycarbonyl (Fmoc) chemistry. […] of each individual fluorescein-conjugated peptide was injected intravenously into the tail vein of RIP1-Tag2 mice at 8 or 12 weeks of age, and into normal BL/6 mice. The peptide was allowed to circulate for 7 minutes, followed by heart perfusion first with PBS and then with Zn-buffered formalin. The RIP1-Tag2 pancreas and control organs (brain, kidney, liver, lung and spleen) were removed, fixed for one hour in formalin, washed with 1×PBS, placed in 30% sucrose for several hours, washed with 1×PBS, and embedded in OCT (Tissue-Tek). Each peptide was injected into at least three individual RIP1-Tag2 or normal mice at each of the different stages. To examine the localization of injected fluorescein-conjugated peptides, frozen sections ([…] thick) were cut on a cryostat, mounted in Vectashield Mounting Medium with DAPI (Vector Laboratories) and visualized under an inverted fluorescent microscope or a confocal microscope (Zeiss LSM 510 META).

[3] = system: bTC3-derived subcutaneous transplant tumor in a nude mouse; assay: Homing to bTC3 subcutaneous tumor; type: in vivo; settings: FIG. 4A
Method: To determine whether phage identified to home to pancreatic tumors also home to other types of tumors, these phage were tested using animals having various types of tumors, including bTC3 subcutaneous tumor and MDA MB-435 subcutaneous tumor. bTC3 transplant tumors arise following subcutaneous inoculation of nude mice with cultured islet tumor-derived (bTC3) cells (Efrat et al., 1988). Since the vasculature of a subcutaneously grown bTC3 tumor derives from skin, we also tested another subcutaneous transplant tumor, arising from inoculation of the MDA-MB-435 human breast carcinoma cell line. Finally, K14-HPV16 mice, another well-studied transgenic mouse model of cancer that develop tumors of the squamous epithelial cells of the skin (Arbeit et al., 1994; Coussens et al., 1996), was used to compare RIP1-Tag2 islet tumors to a tumor with similar multistage pathogenesis arising in a different tissue.
Tumors were dissected from the ear or chest of K14-HPV16 mice. For the bTC3 allograft models, 10^6 bTC3 tumor cells (Efrat et al., 1988) were inoculated under the skin of the rear flank of nu/nu mice in a BALB/c background and allowed to grow until approximately 5 mm in size, and then used for experimental analysis. MDA-MB-435 xenograft models were generated by inoculating 10^6 tumor cells subcutaneously in the chest of nu/nu Balb/c mice. Tumors were used for the homing/binding experiments at 8-12 weeks after injection of the tumor cells.

PDGFRβ = target: T1, PDGFRβ (Homo sapiens, UniProt P09619); assay: Phage binding to transfected 293T cells (plaque assay); settings: FIG. 5A
T1 construct: expressed in transfected cells; host or cells: 293T cells
T1 sequence (P09619 33-1106, species assumed): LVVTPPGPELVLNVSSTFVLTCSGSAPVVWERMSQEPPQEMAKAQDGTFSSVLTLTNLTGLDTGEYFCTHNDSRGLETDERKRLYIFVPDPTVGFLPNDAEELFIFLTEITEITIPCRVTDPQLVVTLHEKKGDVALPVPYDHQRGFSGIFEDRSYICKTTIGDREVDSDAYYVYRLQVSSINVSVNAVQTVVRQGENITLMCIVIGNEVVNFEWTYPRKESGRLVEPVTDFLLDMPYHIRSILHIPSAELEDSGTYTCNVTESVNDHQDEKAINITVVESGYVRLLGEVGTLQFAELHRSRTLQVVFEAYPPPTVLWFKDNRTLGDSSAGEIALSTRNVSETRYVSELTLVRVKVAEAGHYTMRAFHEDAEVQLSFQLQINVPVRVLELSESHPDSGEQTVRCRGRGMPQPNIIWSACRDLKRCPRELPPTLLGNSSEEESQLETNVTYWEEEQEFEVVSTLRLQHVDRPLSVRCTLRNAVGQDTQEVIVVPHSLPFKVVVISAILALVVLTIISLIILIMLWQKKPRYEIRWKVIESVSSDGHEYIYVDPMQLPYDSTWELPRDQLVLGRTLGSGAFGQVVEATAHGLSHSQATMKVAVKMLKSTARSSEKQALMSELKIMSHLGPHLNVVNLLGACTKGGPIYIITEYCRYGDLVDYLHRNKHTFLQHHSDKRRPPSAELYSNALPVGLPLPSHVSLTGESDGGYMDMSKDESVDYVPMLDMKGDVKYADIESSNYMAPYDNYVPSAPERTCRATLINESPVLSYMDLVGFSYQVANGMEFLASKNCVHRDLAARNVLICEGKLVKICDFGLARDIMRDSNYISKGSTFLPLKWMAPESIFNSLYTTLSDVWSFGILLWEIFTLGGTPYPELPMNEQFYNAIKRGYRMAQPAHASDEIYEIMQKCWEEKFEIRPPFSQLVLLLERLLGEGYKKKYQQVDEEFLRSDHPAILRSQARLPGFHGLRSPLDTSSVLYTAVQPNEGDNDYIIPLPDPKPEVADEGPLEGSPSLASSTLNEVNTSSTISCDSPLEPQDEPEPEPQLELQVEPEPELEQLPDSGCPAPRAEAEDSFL
Method: To confirm that the RGR peptide binds specifically to PDGFRβ, phage displaying this peptide were incubated with 293T cells overexpressing PDGFRβ. Recombinant 293T cells were prepared by transfecting with plasmids encoding PDGFRβ or VEGFR-2 (Borges et al., 2000) using Fugene transfection reagent (Roche Diagnostics). Briefly, 10 μg of plasmid was mixed with 700 μl of DMEM without serum and 30 μl of Fugene reagent, and incubated for 15 minutes at room temperature before adding the mixture to the cells. Forty-eight hours post-transfection the cells were detached from the culture plates using EDTA and washed once with PBS. Recombinant phage displaying the RSR, RGR peptides and control nonrecombinant phage (about 1×10^9 pfu) were incubated with the transfected cells for 2 hours at 4° C., followed by 5 washes with 1% BSA in PBS to remove the unbound phage. The bound phage were rescued by adding bacteria, and the binding efficiencies were determined by plaque assay.

[4] = fluorescein-conjugated peptide i.v., 7 minutes circulation, FIG. 2

CRGRRST [linear homing peptide]
homing class of individual phage (angiogenic islets or tumors in vivo) [1]: home to both types of lesion
localization in RIP1-Tag2 angiogenic islets [2, 4]: localizes
localization in RIP1-Tag2 tumors [2, 4]: localizes
localization in normal islets [2, 4]: little or no localization
homing selectivity of purified peptides ([2]; i.v. into 8-week or 12-week old RIP-Tag2 mice): both angiogenic islets and tumors
homing to normal islets, kidney, brain, liver, lung or spleen ([2]; purified peptides i.v.): did not appreciably home
homing to TC3 tumor [3]: did not home appreciably
binding to PDGFRβ-transfected cells (PDGFRβ): bind
